In ChEMBL document CHEMBL1201862, “PubChem BioAssay data set” (2004):
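Grown in 96-well plates, cells were treated for 48 hours with each compound at five concentrations. Insufficient inhibition: endpoint recorded as highest concentration tested. GI50 is the concentration that inhibits growth by half.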 The source made the active and inactive calls. Cut-off read from the data, not from the text of the source: active = GI50 up to about 1.1 µM and inactive = higher.

Legend:
Assay in all cases: NCI anticancer screen, dose series, 48 h
786-0 = tested on: 786-0
ACHN = tested on: ACHN
HCT-116 = tested on: HCT-116
HCT-15 = tested on: HCT-15
HL-60 = tested on: HL-60
HOP-92 = tested on: HOP-92
KM12 = tested on: KM12
M14 = tested on: M14
NCI-H226 = tested on: NCI-H226
OVCAR-5 = tested on: OVCAR-5
RPMI-8226 = tested on: RPMI-8226
SF-268 = tested on: SF-268
SF-295 = tested on: SF-295
SF-539 = tested on: SF-539
SK-MEL-28 = tested on: SK-MEL-28
SK-OV-3 = tested on: SK-OV-3
SW-620 = tested on: SW-620
TK-10 = tested on: TK-10
UACC-62 = tested on: UACC-62

**Q.** For `C/C(=C\CC[C@]1(C)OC(C)(C)OC1CC/C(C)=C/CO[Si](c1ccccc1)(c1ccccc1)C(C)(C)C)CC/C=C/CO[Si](C)(C)C(C)(C)C` (stereo not given in full), which GI50 (786-0) is on record?
**A.** The GI50 was > 100 µM (inactive).

**Q.** What about the GI50 (ACHN) of the same compound?
**A.** Its GI50 is > 100 µM (inactive).

**Q.** What about the GI50 (HCT-116) of the same compound?
**A.** The GI50 was > 100 µM (inactive).

**Q.** What about the GI50 (HCT-15) of the same compound?
**A.** The GI50 was greater than 100 µM.

**Q.** What about the GI50 (HL-60) of the same compound?
**A.** The GI50 was > 100 µM (inactive).

**Q.** And the GI50 (HOP-92)?
**A.** The GI50 was > 100 µM (inactive).

**Q.** And the GI50 (KM12)?
**A.** The GI50 was > 100 µM (inactive).

**Q.** And the GI50 (M14)?
**A.** The GI50 was > 100 µM (inactive).

**Q.** What about the GI50 (NCI-H226) of the same compound?
**A.** Its GI50 is > 100 µM (inactive).

**Q.** And the GI50 (OVCAR-5)?
**A.** Its GI50 is > 100 µM (inactive).

**Q.** And the GI50 (RPMI-8226)?
**A.** The GI50 was > 100 µM (inactive).

**Q.** What about the GI50 (SF-268) of the same compound?
**A.** Its GI50 is > 100 µM (inactive).

**Q.** What about the GI50 (SF-295) of the same compound?
**A.** Its GI50 is > 100 µM (inactive).

**Q.** What about the GI50 (SF-539) of the same compound?
**A.** The GI50 was > 100 µM (inactive).

**Q.** And the GI50 (SK-MEL-28)?
**A.** Its GI50 is > 100 µM (inactive).

**Q.** And the GI50 (SK-OV-3)?
**A.** The GI50 was > 100 µM (inactive).

**Q.** What about the GI50 (SW-620) of the same compound?
**A.** Its GI50 is > 100 µM (inactive).

**Q.** What about the GI50 (TK-10) of the same compound?
**A.** The GI50 was > 100 µM (inactive).

**Q.** And the GI50 (UACC-62)?
**A.** Its GI50 is > 100 µM (inactive).

**Q.** For `CS(=O)(=O)OCCCOS(C)(=O)=O`, which GI50 (786-0) is on record?
**A.** Its GI50 is > 100 µM (inactive).

**Q.** What about the GI50 (ACHN) of the same compound?
**A.** The GI50 was > 100 µM (inactive).

**Q.** What about the GI50 (HCT-116) of the same compound?
**A.** The GI50 was > 100 µM (inactive).

**Q.** What about the GI50 (HCT-15) of the same compound?
**A.** Its GI50 is greater than 100 µM.

**Q.** What about the GI50 (HL-60) of the same compound?
**A.** The GI50 was > 100 µM (inactive).

**Q.** What about the GI50 (HOP-92) of the same compound?
**A.** The GI50 was > 100 µM (inactive).

**Q.** And the GI50 (KM12)?
**A.** Its GI50 is > 100 µM (inactive).

**Q.** What about the GI50 (M14) of the same compound?
**A.** Its GI50 is > 100 µM (inactive).

**Q.** And the GI50 (NCI-H226)?
**A.** Its GI50 is > 100 µM (inactive).

**Q.** What about the GI50 (OVCAR-5) of the same compound?
**A.** Its GI50 is > 100 µM (inactive).

**Q.** What about the GI50 (RPMI-8226) of the same compound?
**A.** Its GI50 is > 100 µM (inactive).

**Q.** And the GI50 (SF-268)?
**A.** Its GI50 is > 100 µM (inactive).

**Q.** What about the GI50 (SF-295) of the same compound?
**A.** The GI50 was > 100 µM (inactive).

**Q.** And the GI50 (SF-539)?
**A.** Its GI50 is > 100 µM (inactive).

**Q.** What about the GI50 (SK-MEL-28) of the same compound?
**A.** The GI50 was > 100 µM (inactive).

**Q.** And the GI50 (SK-OV-3)?
**A.** The GI50 was > 100 µM (inactive).

**Q.** What about the GI50 (SW-620) of the same compound?
**A.** The GI50 was > 100 µM (inactive).

**Q.** And the GI50 (TK-10)?
**A.** The GI50 was > 100 µM (inactive).

**Q.** And the GI50 (UACC-62)?
**A.** The GI50 was > 100 µM (inactive).

**Q.** What does the source list for `Cc1cc(Cl)ccc1C1OC(=O)c2c1ccc1ccccc21` (stereo not given)?
**A.** GI50 (786-0): 97.5 µM (inactive); GI50 (ACHN): > 100 µM (inactive); GI50 (HCT-116): > 100 µM (inactive); GI50 (HCT-15): > 100 µM; GI50 (HL-60): > 100 µM (inactive); GI50 (HOP-92): > 100 µM (inactive); GI50 (KM12): > 100 µM (inactive); GI50 (M14): > 100 µM (inactive); GI50 (NCI-H226): > 100 µM (inactive); GI50 (OVCAR-5): > 100 µM (inactive); GI50 (RPMI-8226): > 100 µM (inactive); GI50 (SF-268): > 100 µM (inactive); GI50 (SF-295): > 100 µM (inactive); GI50 (SF-539): > 100 µM (inactive); GI50 (SK-MEL-28): > 100 µM (inactive); GI50 (SK-OV-3): > 100 µM (inactive); GI50 (SW-620): > 100 µM (inactive); GI50 (TK-10): > 100 µM (inactive); GI50 (UACC-62): > 100 µM (inactive)

**Q.** How did the GI50 (786-0) turn out when `O=C1c2ccccc2C(=O)N1C/C=N/NS(=O)(=O)c1ccc(Br)cc1` was run?
**A.** The GI50 was > 100 µM (inactive).

**Q.** And the GI50 (ACHN)?
**A.** The GI50 was > 100 µM (inactive).

**Q.** And the GI50 (HCT-116)?
**A.** The GI50 was > 100 µM (inactive).

**Q.** And the GI50 (HCT-15)?
**A.** The GI50 was greater than 100 µM.

**Q.** And the GI50 (HL-60)?
**A.** The GI50 was > 100 µM (inactive).

**Q.** What about the GI50 (HOP-92) of the same compound?
**A.** Its GI50 is 11 µM (inactive).

**Q.** What about the GI50 (KM12) of the same compound?
**A.** The GI50 was > 100 µM (inactive).

**Q.** And the GI50 (M14)?
**A.** The GI50 was > 100 µM (inactive).

**Q.** What about the GI50 (NCI-H226) of the same compound?
**A.** The GI50 was > 100 µM (inactive).

**Q.** And the GI50 (OVCAR-5)?
**A.** The GI50 was > 100 µM (inactive).

**Q.** And the GI50 (RPMI-8226)?
**A.** The GI50 was > 100 µM (inactive).

**Q.** And the GI50 (SF-268)?
**A.** Its GI50 is > 100 µM (inactive).

**Q.** What about the GI50 (SF-295) of the same compound?
**A.** The GI50 was > 100 µM (inactive).

**Q.** And the GI50 (SF-539)?
**A.** Its GI50 is > 100 µM (inactive).

**Q.** And the GI50 (SK-MEL-28)?
**A.** The GI50 was 80 µM (inactive).

**Q.** And the GI50 (SK-OV-3)?
**A.** Its GI50 is > 100 µM (inactive).

**Q.** What about the GI50 (SW-620) of the same compound?
**A.** Its GI50 is > 100 µM (inactive).

**Q.** And the GI50 (TK-10)?
**A.** Its GI50 is > 100 µM (inactive).

**Q.** And the GI50 (UACC-62)?
**A.** Its GI50 is > 100 µM (inactive).

**Q.** What does the source list for `COC(=O)CC(=O)OC1C[C@@H]2CCC3C(C)(C)CCC[C@]3(C)C23CC[C@@]1(C)C3` (stereo not given in full)?
**A.** GI50 (786-0): 16.3 µM (inactive); GI50 (ACHN): 17.5 µM (inactive); GI50 (HCT-116): 17.3 µM (inactive); GI50 (HCT-15): 19.9 µM; GI50 (HL-60): > 100 µM (inactive); GI50 (HOP-92): 18 µM (inactive); GI50 (KM12): 18.5 µM (inactive); GI50 (M14): 18 µM (inactive); GI50 (NCI-H226): 28.6 µM (inactive); GI50 (OVCAR-5): 16.1 µM (inactive); GI50 (RPMI-8226): 45.9 µM (inactive); GI50 (SF-268): 18.5 µM (inactive); GI50 (SF-295): 19.2 µM (inactive); GI50 (SF-539): 19.6 µM (inactive); GI50 (SK-MEL-28): 19.8 µM (inactive); GI50 (SK-OV-3): 24.5 µM (inactive); GI50 (SW-620): 18.2 µM (inactive); GI50 (TK-10): 19.1 µM (inactive); GI50 (UACC-62): 16.3 µM (inactive)
